In patent US9474790B2, “Stable, protracted GLP-1/glucagon receptor co-agonists for medical use” (Novo Nordisk A/S, priority 2013, dated 2016):
Numbered stars: 1 amine (or outer) side, 2 acyl side, 3 side chain; on linkers, the order of the positions; unused ones are H or OH. Square brackets hold non-standard residues; d marks the D form. Side chains are listed from the residue outwards. Peptide text beside a SMILES is read from it. * marks the point of attachment. C18 diacid = O=C(O)CCCCCCCCCCCCCCCCC(=O)*; γGlu = O=C(O)[C@H](CCC(=O)[*:2])N[*:1]; Ac4c = NC1(C(=O)O)CCC1; AEEA = NCCOCCOCC(=O)O; Aib = CC(C)(N)C(=O)O

Test: Thioflavin T (ThT) fibrillation assay for physical stability
Type: physicochemical
Details: 250 μM in 10 mM HEPES buffer, pH 7.5, 37° C., shaking 960 rpm
How it was run: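 Fibrillation was followed by ThT (1 μM) fluorescence every 20 min, 444/485 nm, for 250 μM peptide in 10 mM HEPES pH 7.5 shaken at 960 rpm, 37° C. Lag time (t0−2τ) and apparent rate constant (1/τ) come from a sigmoidal fit. Recovery is % of initial concentration remaining soluble after centrifugation and filtration (RP-HPLC).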

THT assay Lag time (Ex. 76) [h] | Structure (SMILES)
12 | CC(C)C[C@H](NC(=O)[C@H](Cc1ccc(O)cc1)NC(=O)[C@H](CCCNC(=N)N)NC(=O)[C@H](CO)NC(=O)[C@H](CC(C)C)NC(=O)[C@H](CC(=O)O)NC(=O)[C@H](CO)NC(=O)[C@@H](NC(=O)[C@H](Cc1ccccc1)NC(=O)[C@@H](NC(=O)CNC(=O)[C@H](CCC(N)=O)NC(=O)C1(NC(=O)[C@@H](N)Cc2c[nH]cn2)CCC1)[C@@H](C)O)[C@@H](C)O)C(=O)N[C@@H](CCC(=O)O)C(=O)N[C@@H](CO)C(=O)N[C@@H](CCCNC(=N)N)C(=O)N[C@@H](CCCNC(=N)N)C(=O)N[C@@H](C)C(=O)N[C@@H](CCCNC(=N)N)C(=O)N[C@@H](CCC(=O)O)C(=O)N[C@@H](Cc1ccccc1)C(=O)N[C@H](C(=O)N[C@@H](CCC(N)=O)C(=O)N[C@@H](Cc1c[nH]c2ccccc12)C(=O)N[C@@H](CC(C)C)C(=O)N[C@@H](CC(C)C)C(=O)N[C@@H](CCCCNC(=O)CC[C@H](NC(=O)CC[C@H](NC(=O)COCCOCCNC(=O)COCCOCCNC(=O)CC[C@H](NC(=O)CC[C@H](NC(=O)CCCCCCCCCCCCCCCCC(=O)O)C(=O)O)C(=O)O)C(=O)O)C(=O)O)C(=O)N[C@H](C(N)=O)[C@@H](C)O)C(C)C [Example 59, N^ε28-[(4S)-4-carboxy-4-[[(4S)-4-carboxy-4-[[2-[2-[2-[[2-[2-[2-[[(4S)-4-carboxy-4-[[(4S)-4-carboxy-4-(17-carboxyheptadecanoylamino)butanoyl]amino]butanoyl]amino]ethoxy]ethoxy]acetyl]amino]ethoxy]ethoxy]acetyl]amino]butanoyl]amino]butanoyl]-[Acb2,Leu10,Arg12,Glu15,Arg20,Glu21,Leu27,Lys28]-Glucagon amide] (H-H[Ac4c]QGTFTSDLSRYLESRRAREFVQWLLK([γGlu-γGlu-AEEA-AEEA-γGlu-γGlu-C18 diacid])T-NH2; N-terminus assumed)
20 | CC(C)C[C@H](NC(=O)[C@H](Cc1ccc(O)cc1)NC(=O)[C@H](CCCCN)NC(=O)[C@H](CO)NC(=O)[C@H](CC(C)C)NC(=O)[C@H](CC(=O)O)NC(=O)[C@H](CO)NC(=O)[C@@H](NC(=O)[C@H](Cc1ccccc1)NC(=O)[C@@H](NC(=O)CNC(=O)[C@H](CCC(N)=O)NC(=O)C1(NC(=O)[C@@H](N)Cc2c[nH]cn2)CCC1)[C@@H](C)O)[C@@H](C)O)C(=O)N[C@@H](CCC(=O)O)C(=O)N[C@@H](CO)C(=O)N[C@@H](CCCNC(=N)N)C(=O)N[C@@H](CCCNC(=N)N)C(=O)N[C@@H](C)C(=O)N[C@@H](CCCNC(=N)N)C(=O)N[C@@H](CCC(=O)O)C(=O)N[C@@H](Cc1ccccc1)C(=O)N[C@H](C(=O)N[C@@H](CCC(N)=O)C(=O)N[C@@H](Cc1c[nH]c2ccccc12)C(=O)N[C@@H](CC(C)C)C(=O)N[C@@H](CC(C)C)C(=O)N[C@@H](CCCCNC(=O)CC[C@H](NC(=O)CC[C@H](NC(=O)COCCOCCNC(=O)COCCOCCNC(=O)CC[C@H](NC(=O)CC[C@H](NC(=O)CCCCCCCCCCCCCCCCC(=O)O)C(=O)O)C(=O)O)C(=O)O)C(=O)O)C(=O)N[C@H](C(N)=O)[C@@H](C)O)C(C)C [Example 61, N^ε28-[(4S)-4-carboxy-4-[[(4S)-4-carboxy-4-[[2-[2-[2-[[2-[2-[2-[[(4S)-4-carboxy-4-[[(4S)-4-carboxy-4-(17-carboxyheptadecanoylamino)butanoyl]amino]butanoyl]amino]ethoxy]ethoxy]acetyl]amino]ethoxy]ethoxy]acetyl]amino]butanoyl]amino]butanoyl]-[Acb2,Leu10,Glu15,Arg20,Glu21,Leu27,Lys28]-Glucagon amide] (H-H[Ac4c]QGTFTSDLSKYLESRRAREFVQWLLK([γGlu-γGlu-AEEA-AEEA-γGlu-γGlu-C18 diacid])T-NH2; N-terminus assumed)

Continued, compound first:

Structure (SMILES) | THT assay Lag time (Ex. 76) [h]
CC(C)C[C@H](NC(=O)[C@H](CC(=O)O)NC(=O)[C@H](CC(C)C)NC(=O)[C@H](Cc1ccc(O)cc1)NC(=O)[C@H](CCCCN)NC(=O)[C@H](CO)NC(=O)[C@H](CC(C)C)NC(=O)[C@H](CC(=O)O)NC(=O)[C@H](CO)NC(=O)[C@@H](NC(=O)[C@H](Cc1ccccc1)NC(=O)[C@@H](NC(=O)CNC(=O)[C@H](CCC(N)=O)NC(=O)C(C)(C)NC(=O)[C@@H](N)Cc1c[nH]cn1)[C@@H](C)O)[C@@H](C)O)C(=O)N[C@@H](CCCNC(=N)N)C(=O)N[C@@H](CCCNC(=N)N)C(=O)N[C@@H](C)C(=O)N[C@@H](CCCNC(=N)N)C(=O)N[C@@H](CC(=O)O)C(=O)N[C@@H](Cc1ccccc1)C(=O)N[C@H](C(=O)N[C@@H](CCC(N)=O)C(=O)N[C@@H](Cc1c[nH]c2ccccc12)C(=O)N[C@@H](CC(C)C)C(=O)N[C@@H](CC(C)C)C(=O)N[C@@H](CCCCNC(=O)CNC(=O)[C@H](CO)NC(=O)[C@H](CCC(=O)O)NC(=O)[C@H](CO)NC(=O)CC[C@H](NC(=O)CC[C@H](NC(=O)CCCCCCCCCCCCCCCCC(=O)O)C(=O)O)C(=O)O)C(=O)N[C@H](C(N)=O)[C@@H](C)O)C(C)C [Example 55, N^ε28-[2-[[(2S)-2-[[(2S)-4-carboxy-2-[[(2S)-2-[[(4S)-4-carboxy-4-[[(4S)-4-carboxy-4-(17-carboxyheptadecanoylamino)butanoyl]amino]butanoyl]amino]-3-hydroxypropanoyl]amino]butanoyl]amino]-3-hydroxypropanoyl]amino]acetyl]-[Aib2,Leu10,Leu16,Arg20,Leu27,Lys28]-Glucagon amide] (H-H[Aib]QGTFTSDLSKYLDLRRARDFVQWLLK([Gly-Ser-Glu-Ser-γGlu-γGlu-C18 diacid])T-NH2; N-terminus assumed) | 45
CC(C)C[C@H](NC(=O)[C@H](Cc1ccc(O)cc1)NC(=O)[C@H](CCCCN)NC(=O)[C@H](CO)NC(=O)[C@H](CC(C)C)NC(=O)[C@H](CC(=O)O)NC(=O)[C@H](CO)NC(=O)[C@@H](NC(=O)[C@H](Cc1ccccc1)NC(=O)[C@@H](NC(=O)CNC(=O)[C@H](CCC(N)=O)NC(=O)C(C)(C)NC(=O)[C@@H](N)Cc1c[nH]cn1)[C@@H](C)O)[C@@H](C)O)C(=O)N[C@@H](CC(=O)O)C(=O)N[C@@H](CO)C(=O)N[C@@H](CCCNC(=N)N)C(=O)N[C@@H](CCCNC(=N)N)C(=O)N[C@@H](C)C(=O)N[C@@H](CCCNC(=N)N)C(=O)N[C@@H](CCC(=O)O)C(=O)N[C@@H](Cc1ccccc1)C(=O)N[C@H](C(=O)N[C@@H](CCC(N)=O)C(=O)N[C@@H](Cc1c[nH]c2ccccc12)C(=O)N[C@@H](CC(C)C)C(=O)N[C@@H](CC(C)C)C(=O)N[C@@H](CCCCNC(=O)CC[C@H](NC(=O)CC[C@H](NC(=O)COCCOCCNC(=O)COCCOCCNC(=O)CC[C@H](NC(=O)CCCCCCCCCCCCCCCCC(=O)O)C(=O)O)C(=O)O)C(=O)O)C(=O)N[C@H](C(N)=O)[C@@H](C)O)C(C)C [Example 56, N^ε28-[(4S)-4-carboxy-4-[[(4S)-4-carboxy-4-[[2-[2-[2-[[2-[2-[2-[[(4S)-4-carboxy-4-(17-carboxyheptadecanoylamino)butanoyl]amino]ethoxy]ethoxy]acetyl]amino]ethoxy]ethoxy]acetyl]amino]butanoyl]amino]butanoyl]-[Aib2,Leu10,Arg20,Glu21,Leu27,Lys28]-Glucagon amide] (H-H[Aib]QGTFTSDLSKYLDSRRAREFVQWLLK([γGlu-γGlu-AEEA-AEEA-γGlu-C18 diacid])T-NH2) | 45
CC(C)C[C@H](NC(=O)[C@H](Cc1ccc(O)cc1)NC(=O)[C@H](CCCCN)NC(=O)[C@H](CO)NC(=O)[C@H](CC(C)C)NC(=O)[C@H](CC(=O)O)NC(=O)[C@H](CO)NC(=O)[C@@H](NC(=O)[C@H](Cc1ccccc1)NC(=O)[C@@H](NC(=O)CNC(=O)[C@H](CCC(N)=O)NC(=O)C(C)(C)NC(=O)[C@@H](N)Cc1c[nH]cn1)[C@@H](C)O)[C@@H](C)O)C(=O)N[C@@H](CCC(=O)O)C(=O)N[C@@H](CO)C(=O)N[C@@H](CCCNC(=N)N)C(=O)N[C@@H](CCCNC(=N)N)C(=O)N[C@@H](C)C(=O)N[C@@H](CCCNC(=N)N)C(=O)N[C@@H](CCC(=O)O)C(=O)N[C@@H](Cc1ccccc1)C(=O)N[C@H](C(=O)N[C@@H](CCC(N)=O)C(=O)N[C@@H](Cc1c[nH]c2ccccc12)C(=O)N[C@@H](CC(C)C)C(=O)N[C@@H](CC(C)C)C(=O)N[C@@H](CCCCNC(=O)CC[C@H](NC(=O)CC[C@H](NC(=O)COCCOCCNC(=O)COCCOCCNC(=O)CC[C@H](NC(=O)CC[C@H](NC(=O)CCCCCCCCCCCCCCCCC(=O)O)C(=O)O)C(=O)O)C(=O)O)C(=O)O)C(=O)N[C@H](C(N)=O)[C@@H](C)O)C(C)C [Example 60, N^ε28-[(4S)-4-carboxy-4-[[(4S)-4-carboxy-4-[[2-[2-[2-[[2-[2-[2-[[(4S)-4-carboxy-4-[[(4S)-4-carboxy-4-(17-carboxyheptadecanoylamino)butanoyl]amino]butanoyl]amino]ethoxy]ethoxy]acetyl]amino]ethoxy]ethoxy]acetyl]amino]butanoyl]amino]butanoyl]-[Aib2,Leu10,Glu15,Arg20,Glu21,Leu27,Lys28]-Glucagon amide] (H-H[Aib]QGTFTSDLSKYLESRRAREFVQWLLK([γGlu-γGlu-AEEA-AEEA-γGlu-γGlu-C18 diacid])T-NH2; N-terminus assumed) | 45
